Columns and labels:
[1] = Particle size of lipid nanoparticle (dynamic light scattering, Malvern Zetasizer); assay type: physicochemical; details: FVII siRNA LNP; Chol/DSPC/S010, molar ratio 45/44/9/2; Z-average
Description: The lipid nanoparticles have a size of about 1 to about 2,500 nm, about 1 to about 1,500 nm, about 1 to about 1,000 nm, in a sub-embodiment about 50 to about 600 nm, in a sub-embodiment about 50 to about 400 nm, in a sub-embodiment about 50 to about 250 nm, and in a sub-embodiment about 50 to about 150 nm. Unless indicated otherwise, all sizes referred to herein are the average sizes (diameters) of the fully formed nanoparticle, as measured by dynamic light scattering on a Malvern Zetasizer. The nanoparticle sample is diluted in phosphate buffered saline (PBS) so that the count rate is approximately 200-400 kcts. The data is presented as a weighted average of the intensity measure. Unless indicated otherwise, all particle size measurements referred to in Tables 4 and 5 are the Z-average particle size of the fully formed nanoparticle, as measured by dynamic light scattering on a Malvern Zetasizer. The nanoparticle sample was diluted in phosphate buffered saline (PBS) so that the count rate is approximately 200-400 kcts.

[2] = Polydispersity index (PDI) of lipid nanoparticle (dynamic light scattering); assay type: physicochemical; details: FVII siRNA LNP; Chol/DSPC/S010, molar ratio 45/44/9/2
Method: Unless indicated otherwise, all PDIs referred to herein are the PDI of the fully formed nanoparticle, as measured by dynamic light scattering on a Malvern Zetasizer. The nanoparticle sample was diluted in phosphate buffered saline (PBS) so that the count rate was approximately 200-400 kcts. The data is presented in Tables 4 and 5 as a weighted average of the intensity measure.

[3] = system: plasma Factor VII enzyme activity; test: Mouse Factor VII dosing / Factor VII Activity Assay; assay type: in vivo; details: percent knock down of plasma Factor VII activity, CD-1 mice, 48 h; for KD FVII 0.03 mg/kg: single IV dose 0.03 mg/kg; for KD FVII 0.3 mg/kg: single IV dose 0.3 mg/kg
Method: Female CD-1 mice were received from Harlan Labs and maintained on standard lab chow and water ad libitum. The animals weighed approximately 25 grams at time of dosing. Formulated Factor VII siRNA was administered as a single dose intravenously via the lateral tail vein. Approximately 48 hours after injection, the mice were euthanized by CO2 inhalation followed by exsanguination through the vena cava. […] Plasma collected from injected mice was assayed for Factor VII enzyme activity using the Biophen FVII kit from Hyphen Biomedical (catalog number 221304). An assay standard curve was prepared using pooled plasma aliquots from the vehicle control animals. All samples were diluted to fall within the linear range of the standard curve and Factor VII activity relative to control plasma was reported. Lipid nanoparticles comprising lipid compounds of formula (I) and the FVII siRNA duplex sequence listed above were tested in the Factor VII Activity Assay. The results of this assay are given in Table 4 below as a percent knock down of plasma Factor VII enzyme activity at a dose of 0.3 mg/kg and 0.03 mg/kg.

[4] = system: respiratory syncytial virus F protein; test: Immunization studies, anti-RSV-F titers; assay type: in vivo; details: anti-RSV-F titer, BALB/c, course A = days 0 & 21, liposomes with 0.1 μg vA317 replicon (naked: 1 μg); for 2wp1 pool 1 / 2wp1 pool 2: 2 weeks after first dose; for 2wp2 pool 1 / 2wp2 pool 2: 2 weeks after second dose; for 4wp2 pool 1 / 4wp2 pool 2: 4 weeks after second dose
Method: BALB/c were immunized with liposomes comprising DSPC, cholesterol, and various lipids of the invention (or, for comparison, the cationic lipid 1,2-dilinoleyloxy-N,N-dimethyl-3-aminopropane or ‘DLinDMA’). The liposomes encapsulated 0.1 μg of “vA317” self-replicating RNA replicon which encodes respiratory syncytial virus F protein (see WO2012/031043). […] Doses were given either on days 0 & 21 or days 0 & 42. Immune responses were assessed 2 weeks after each dose (2wp1, 2wp2), and in some cases also at 4 weeks after the second dose (4wp2).

[5] = LNP Chol/DSPC/PEG-DMG 45/44/9/2

Row | Size (nm) [1] | PDI [2] | SMILES | KD FVII 0.03 mg/kg ([3]; LNP Chol/DSPC/S010 45/44/9/2) | further results
1 | 98.01 nm | 0.106 | CCCCC/C=C\C/C=C\CCCCCCCC(=O)OCCCOc1cc(CN(C)C)cc(OCCCOC(=O)CC(CCCCCCCC)CCCCCCCC)c1 [Ex. 97, (9Z,12Z)-3-(3-((dimethylamino)methyl)-5-(3-((3-octylundecanoyl)oxy)propoxy)phenoxy)propyl octadeca-9,12-dienoate] |  | 
2 | 164.6 nm | 0.096 | CCCCCCCCOC(=O)CCCCCCCC(=O)OCCCOc1cc(CN(C)C)cc(OCCCOC(=O)CCCCCCCC(=O)OCCCCCCCC)c1 [Ex. 98, O′^1,O^1-(((5-((dimethylamino)methyl)-1,3-phenylene)bis(oxy))bis(propane-3,1-diyl)) 9-dioctyl dinonanedioate] |  | 
3 |  |  | CCCCCCCC(=O)OCCCCCCCCCCOc1cc(CN(CC)CC)cc(OCCCCCCCCCCOC(=O)CCCCCCC)c1OCCCCCCCCCCOC(=O)CCCCCCC [Ex. 100, ((5-((diethylamino)methyl)benzene-1,2,3-triyl)tris(oxy))tris(decane-10,1-diyl)trioctanoate] | 26.9% | KD FVII 0.3 mg/kg [3, 5]: 94.0%
4 | 191.7 nm | 0.071 | CCCCCCCC(=O)OCC(COC(=O)CCCCCCC)OC(=O)CCC(=O)OCc1cc(COC(=O)CCC(=O)OC(COC(=O)CCCCCCC)COC(=O)CCCCCCC)cc(CN(C)C)c1 [Ex. 107, bis(1,3-bis(octanoyloxy)propan-2-yl) O,O′-((5-((dimethylamino)methyl)-1,3-phenylene)bis(methylene))disuccinate] |  | 
5 |  |  | CCCCC/C=C\C/C=C\CCCCCCCC(=O)OCCCCOc1cc(CN2CCCC2)cc(OCCCCOC(=O)CCCCCCC/C=C\C/C=C\CCCCC)c1 [Ex. 112, (9Z,9′Z,12Z,12′Z)-((5-(pyrrolidin-1-ylmethyl)-1,3-phenylene)bis(oxy))bis(butane-4,1-diyl)bis(octadeca-9,12-dienoate)] |  | KD FVII 0.03 mg/kg [3, 5]: 86%
6 | 81.16 nm | 0.049 | CCCCC/C=C\C/C=C\CCCCCCCCOc1cc(COC(=O)CCN(C)C)cc(OCCCCCCCC/C=C\C/C=C\CCCCC)n1 [Example 31, (2,6-bis((9Z,12Z)-octadeca-9,12-dien-1-yloxy)pyridin-4-yl)methyl 3-(dimethylamino)propanoate] |  | 
7 |  |  | CCCCCCCCCCCCC(=O)OCc1cc(COC(=O)CCCCCCCCCCCC)cc(CN(C)C)c1 [Example 34, (5-((dimethylamino)methyl)-1,3-phenylene)bis(methylene)ditridecanoate] |  | KD FVII 0.3 mg/kg [3, 5]: 0%
8 |  |  | CCCCC/C=C\C/C=C\CCCCCCCC(=O)OCCOc1cc(CN(C)C)cc(OCCOC(=O)CCCCCCC/C=C\C/C=C\CCCCC)c1 [Example 40, (9Z,9′Z, 12Z, 12′Z)-((5-((dimethylamino)methyl)-1,3-phenylene)bis(oxy))bis(ethane-2,1-diyl)bis(octadeca-9,12-dienoate)] | 8.2% | KD FVII 0.3 mg/kg [3, 5]: 89.8%
9 |  |  | CCCCCCCCCC(=O)OCCCCCCOc1cc(CN(C)C)cc(OCCCCCCOC(=O)CCCCCCCCC)c1 [Example 47, ((5-((dimethylamino)methyl)-1,3-phenylene)bis(oxy))bis(hexane-6,1-diyl)bis(decanoate)] |  | KD FVII 0.3 mg/kg [3, 5]: 99%
10 |  |  | CCCCC/C=C\C/C=C\CCCCCCCC(=O)OCCCCOc1cc(CN(CC)CC)cc(OCCCCOC(=O)CCCCCCC/C=C\C/C=C\CCCCC)c1C [Example 55, (9Z,9′Z,12Z,12′Z)-((5-((diethylamino)methyl)-2-methyl-1,3-phenylene)bis(oxy))bis(butane-4,1-diyl)bis(octadeca-9,12-dienoate)] |  | KD FVII 0.3 mg/kg [3, 5]: 98.0%
11 |  |  | CCCCCCCC/C=C\CCCCCCCC(=O)OCCCCOc1cc(CN(C)C)cc(OCCCCOC(=O)CCCCCCC/C=C\CCCCCCCC)c1 [Example 60, (Z)-((5-((dimethylamino)methyl)-1,3-phenylene)bis(oxy))bis(butane-4,1-diyl)dioleate] | 49.75% | 
12 |  |  | CCCCCCCCCCCCCC(=O)OCCCCOc1cc(CN(C)C)cc(OCCCCOC(=O)CCCCCCCCCCCCC)c1 [Example 61, ((5-((dimethylamino)methyl)-1,3-phenylene)bis(oxy))bis(butane-4,1-diyl)ditetradecanoate] | 0% | 
13 |  |  | CC/C=C\C/C=C\C/C=C\CCCCCCCC(=O)OCCCCOc1cc(CN(C)C)cc(OCCCCOC(=O)CCCCCCC/C=C\C/C=C\C/C=C\CC)c1 [Example 62, (9Z,9′Z,12Z,12′Z,15Z,15′Z)-((5-((dimethylamino)methyl)-1,3-phenylene)bis(oxy))bis(butane-4,1-diyl)bis(octadeca-9,12,15-trienoate)] | 85.8% | 
14 |  |  | CCCCC/C=C\C/C=C\CCCCCCCC(=O)OCc1cc(COC(=O)CCCCCCC/C=C\C/C=C\CCCCC)cc(COC(=O)OCCN(C)C)c1 [Example 70, (9Z,9′Z,12Z,12′Z)-(5-((((2-(dimethylamino)ethoxy)carbonyl)oxy)methyl)-1,3-phenylene)bis(methylene)bis(octadeca-9,12-dienoate)] |  | 2wp1 pool 1 [4]: 1416; 2wp1 pool 2 [4]: 3110; 2wp2 pool 1 [4]: 31550; 2wp2 pool 2 [4]: 20124; 4wp2 pool 1 [4]: 18779; 4wp2 pool 2 [4]: 18358
15 | 154.1 nm | 0.014 | CCCCC/C=C\C/C=C\CCCCCCCCOC(=O)CCC(=O)OCc1cc(COC(=O)CCC(=O)OCCCCCCCC/C=C\C/C=C\CCCCC)cc(CN(C)C)c1 [Example 77, O,O′-((5-((dimethylamino)methyl)-1,3-phenylene)bis(methylene))di((9Z,12Z)-octadeca-9,12-dien-1-yl)disuccinate] |  | 
16 |  |  | CCCCC/C=C\C/C=C\CCCCCCCCOc1cc(CCCOC(=O)CCN(C)C)cc(OCCCCCCCC/C=C\C/C=C\CCCCC)c1 [Example 81, 3-(3,5-bis((9Z,12Z)-octadeca-9,12-dien-1-yloxy)phenyl)propyl 3-(dimethylamino)propanoate] |  | 2wp1 pool 1 [4]: 1779; 2wp1 pool 2 [4]: 1553; 2wp2 pool 1 [4]: 24648; 2wp2 pool 2 [4]: 15304; 4wp2 pool 1 [4]: 41921; 4wp2 pool 2 [4]: 34684
17 | 128.5 nm | 0.005 | CCCCCCCCCC(=O)OCCCCCCCC(=O)OCc1cc(COC(=O)CCCCCCCOC(=O)CCCCCCCCC)cc(CN(C)C)c1 [Example 83] |  | 
18 | 101.5 nm | 0.076 | CCCCC/C=C\C/C=C\CCCCCCCCOC(=O)CCCCOc1cc(CN(C)C)cc(OCCCCC(=O)OCCCCCCCC/C=C\C/C=C\CCCCC)c1 [Example 89, di((9Z,12Z)-octadeca-9,12-dien-1-yl) 5,5′-((5-((dimethylamino)methyl)-1,3-phenylene)bis(oxy))dipentanoate] |  | 
19 |  |  | CCCCCCCC(=O)OC[C@H](CCOc1cc(CN(C)C)cc(OCC[C@@H](COC(=O)CCCCCCC)OC(=O)CCCCCCC)c1)OC(=O)CCCCCCC [Example 93, (S)-4-(3-((S)-3,4-bis(octanoyloxy)butoxy)-5-((dimethylamino)methyl)phenoxy)butane-1,2-diyldioctanoate] | 89.71% | 
20 |  |  | CCCCCCCC(=O)OC[C@@H](CCOc1cc(CN(C)C)cc(OCC[C@H](COC(=O)CCCCCCC)OC(=O)CCCCCCC)c1)OC(=O)CCCCCCC [Example 94, (R)-4-(3-((R)-3,4-bis(octanoyloxy)butoxy)-5-((dimethylamino)methyl)phenoxy)butane-1,2-diyldioctanoate] | 90% | 

From US10124065B2, “Lipids and lipid compositions for the delivery of active agents” (Novartis AG, priority 2013, dated 2018)
